In PubChem BioAssay AID330 (DTP/NCI, 2004):
Values joined by “and” are separate entries in the source; they are usually repeats but may differ in a detail not shown here. Equal values may be shown once. Toxic doses and inconclusive results are not listed. The calls were made as follows: active = survival T/C of 150% or more; inactive = T/C below 125% in these data.

System: P388 leukemia ip, CD2F1 mice, survival T/C
Test: NCI In Vivo Anticancer Drug Screen. Data for tumor model P388 Leukemia (intraperitoneal) in CD2F1 (CDF1) mice
Details: endpoint: median survival time, higher = longer survival
Procedure, shortened: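 Mice carrying the transplanted tumor received test compound or vehicle. Survival was recorded in each group, and the value is the treated-group measurement divided by that of the vehicle-treated control group.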

[1] = dose: 50.0 mg/kg/injection, schedule: Q01DX009 (ip), vehicle: saline with Tween-80
[2] = dose: 100.0 mg/kg/injection, schedule: Q01DX009 (ip), vehicle: saline with Tween-80
[3] = dose: 200.0 mg/kg/injection, schedule: Q01DX009 (ip), vehicle: saline with Tween-80
[4] = dose: 100.0 mg/kg/injection, schedule: Q01DX009 (ip), vehicle: Klucel (hydroxypropylcellulose) (HPC)
[5] = dose: 200.0 mg/kg/injection, schedule: Q01DX009 (ip), vehicle: Klucel (hydroxypropylcellulose) (HPC)
[6] = dose: 12.5 mg/kg/injection, schedule: Q01DX009 (ip), vehicle: saline with Tween-80
[7] = dose: 50.0 mg/kg/injection, schedule: Q01DX009 (ip), vehicle: Klucel (hydroxypropylcellulose) (HPC)
[8] = dose: 60.0 mg/kg/injection, schedule: Q01DX005 (ip), vehicle: Klucel (hydroxypropylcellulose) (HPC)
[9] = dose: 120.0 mg/kg/injection, schedule: Q01DX005 (ip), vehicle: Klucel (hydroxypropylcellulose) (HPC)
[10] = dose: 50.0 mg/kg/injection, schedule: Q01DX005 (ip), vehicle: saline with Tween-80
[11] = dose: 100.0 mg/kg/injection, schedule: Q01DX005 (ip), vehicle: saline with Tween-80
[12] = dose: 200.0 mg/kg/injection, schedule: Q01DX005 (ip), vehicle: saline with Tween-80

Measured: T/C

CCc1c(CO)c(CO)c(-c2ccccc2)n1CCn1c(CC)c(CO)c(CO)c1-c1ccccc1
inactive: dose: 100.0 mg/kg/injection, schedule: Q01DX001 (ip), vehicle: saline with Tween-80 96 % of control | dose: 200.0 mg/kg/injection, schedule: Q01DX001 (ip), vehicle: saline with Tween-80 88 % of control | dose: 400.0 mg/kg/injection, schedule: Q01DX001 (ip), vehicle: saline with Tween-80 96 % of control

COc1ccc(Cc2noc(=O)[nH]2)cc1
inactive: [1] 104 % of control | [2] 104 % of control | [3] 106 % of control

CC(C)(C)C(=O)Nc1ccc(C(C)(C)C)cc1C(O)(C(F)(F)F)C(F)(F)F
inactive: [4] 92 % of control | [5] 88 % of control

OC1C=C2CCN3Cc4cc5c(cc4C(C1O)C23)OCO5 (configuration not stated)
inactive: dose: 8.75 mg/kg/injection, schedule: Q01DX009 (ip), vehicle: Klucel (hydroxypropylcellulose) (HPC) 96 % of control | dose: 17.5 mg/kg/injection, schedule: Q01DX009 (ip), vehicle: Klucel (hydroxypropylcellulose) (HPC) 96 % of control | dose: 35.0 mg/kg/injection, schedule: Q01DX009 (ip), vehicle: Klucel (hydroxypropylcellulose) (HPC) 106 % of control | dose: 70.0 mg/kg/injection, schedule: Q01DX009 (ip), vehicle: Klucel (hydroxypropylcellulose) (HPC) 109 % of control

NC(=S)N/N=C\c1nccc2ncccc12
inactive: dose: 6.25 mg/kg/injection, schedule: Q04DX002 (ip), vehicle: saline with Tween-80 113 % of control | dose: 12.5 mg/kg/injection, schedule: Q04DX002 (ip), vehicle: saline with Tween-80 124 % of control

Nc1ccccc1C(=O)N/N=C\c1ccc(O)cc1
inactive: [6] 94 % of control | dose: 25.0 mg/kg/injection, schedule: Q01DX009 (ip), vehicle: saline with Tween-80 89 % of control and 91 % of control | [1] 101 % of control and 94 % of control | [2] 99 % of control and 87 % of control

C[N+](C)(C)CCCSc1nc2ccccc2[nH]1
inactive: dose: 0.13 mg/kg/injection, schedule: Q01DX009 (ip), vehicle: saline 95 % of control | dose: 0.25 mg/kg/injection, schedule: Q01DX009 (ip), vehicle: saline 103 % of control | dose: 0.5 mg/kg/injection, schedule: Q01DX009 (ip), vehicle: saline 103 % of control | dose: 1.0 mg/kg/injection, schedule: Q01DX009 (ip), vehicle: saline 104 % of control

CCOC(=O)C1C/C(=N\OS(=O)(=O)c2ccc(C)cc2)c2ccc(OC)c(OC)c2C1 (configuration not stated)
inactive: dose: 25.0 mg/kg/injection, schedule: Q01DX009 (ip), vehicle: other 92 % of control | dose: 50.0 mg/kg/injection, schedule: Q01DX009 (ip), vehicle: other 89 % of control | dose: 100.0 mg/kg/injection, schedule: Q01DX009 (ip), vehicle: other 87 % of control | dose: 400.0 mg/kg/injection, schedule: Q01DX009 (ip), vehicle: other 97 % of control

O=C(O)CC1Sc2ccccc2NC1=O (configuration not stated)
inactive: [7] 100 % of control | [4] 108 % of control | [5] 108 % of control | dose: 400.0 mg/kg/injection, schedule: Q01DX009 (ip), vehicle: Klucel (hydroxypropylcellulose) (HPC) 100 % of control

O=C(NCC1CC1)NC(=O)c1c(F)cccc1Cl
inactive: [8] 102 % of control | [9] 106 % of control | dose: 240.0 mg/kg/injection, schedule: Q01DX005 (ip), vehicle: Klucel (hydroxypropylcellulose) (HPC) 106 % of control

O=C(Nc1cccc([N+](=O)[O-])c1)C1C(=O)N(c2cccc([N+](=O)[O-])c2)C(=O)/C1=N/O (configuration not stated)
inactive: [10] 99 % of control | [11] 95 % of control | [12] 100 % of control

CC1CCC/C=C/C2CC(O)CC2C(O)/C=C\C(=O)O1 (configuration not stated)
inactive: dose: 8.75 mg/kg/injection, schedule: Q01DX005 (ip), vehicle: Klucel (hydroxypropylcellulose) (HPC) 101 % of control | dose: 17.5 mg/kg/injection, schedule: Q01DX005 (ip), vehicle: Klucel (hydroxypropylcellulose) (HPC) 97 % of control | dose: 35.0 mg/kg/injection, schedule: Q01DX005 (ip), vehicle: Klucel (hydroxypropylcellulose) (HPC) 93 % of control | dose: 70.0 mg/kg/injection, schedule: Q01DX005 (ip), vehicle: Klucel (hydroxypropylcellulose) (HPC) 100 % of control

COc1cccc(C)c1NC1=NCCO1
inactive: dose: 0.78 mg/kg/injection, schedule: Q04DX003 (ip), vehicle: saline with Tween-80 100 % of control | dose: 1.56 mg/kg/injection, schedule: Q04DX003 (ip), vehicle: saline with Tween-80 100 % of control | dose: 3.13 mg/kg/injection, schedule: Q04DX003 (ip), vehicle: saline with Tween-80 104 % of control

CC(C)(C)OC(=O)NC(CCC(N)=O)C(=O)ON1C(=O)CCC1=O (configuration not stated)
inactive: [10] 98 % of control | [11] 99 % of control | [12] 104 % of control

N#CC1C(=O)NC(=O)C(C#N)C1C(Cl)(Cl)Cl (configuration not stated)
inactive: [7] 100 % of control | [4] 93 % of control | [5] 102 % of control

CNC(=O)OCc1c(-c2ccccc2)c(-c2ccccc2)n(-c2ccc(OC)cc2)c1COC(=O)NC
inactive: dose: 12.5 mg/kg/injection, schedule: Q01DX009 (ip), vehicle: distilled water + Tween-80 106 % of control | dose: 25.0 mg/kg/injection, schedule: Q01DX009 (ip), vehicle: distilled water + Tween-80 103 % of control and 119 % of control | dose: 50.0 mg/kg/injection, schedule: Q01DX009 (ip), vehicle: distilled water + Tween-80 102 % of control and 119 % of control | dose: 100.0 mg/kg/injection, schedule: Q01DX009 (ip), vehicle: distilled water + Tween-80 116 % of control and 124 % of control

S=c1n(-c2ccc(Cl)cc2)c2nc3ccccc3nc(/c2=N\Nc2cc(Cl)ccc2Cl)n1-c1ccccn1
inactive: [10] 103 % of control | [11] 100 % of control

CP(=O)(NN)c1ccccc1 (configuration not stated)
inactive: dose: 12.5 mg/kg/injection, schedule: Q01DX009 (ip), vehicle: water 89 % of control | dose: 25.0 mg/kg/injection, schedule: Q01DX009 (ip), vehicle: water 96 % of control | dose: 50.0 mg/kg/injection, schedule: Q01DX009 (ip), vehicle: water 101 % of control

C(=Nc1ccccc1)Nc1ccccc1.[Cu+2]
inactive: dose: 6.25 mg/kg/injection, schedule: Q01DX009 (ip), vehicle: saline with Tween-80 100 % of control | [6] 104 % of control and 108 % of control

COC1=C(N)C(=O)c2cccnc2C1=O
inactive: dose: 3.13 mg/kg/injection, schedule: Q01DX009 (ip), vehicle: DMSO 92 % of control | dose: 6.25 mg/kg/injection, schedule: Q01DX009 (ip), vehicle: DMSO 92 % of control | dose: 12.5 mg/kg/injection, schedule: Q01DX009 (ip), vehicle: DMSO 100 % of control | dose: 25.0 mg/kg/injection, schedule: Q01DX009 (ip), vehicle: DMSO 109 % of control

Clc1ccccc1CN1COc2c(ccc3cccnc23)C1
inactive: dose: 100.0 mg/kg/injection, schedule: Q04DX003 (ip), vehicle: Klucel (hydroxypropylcellulose) (HPC) 103 % of control | dose: 200.0 mg/kg/injection, schedule: Q04DX003 (ip), vehicle: Klucel (hydroxypropylcellulose) (HPC) 100 % of control | dose: 400.0 mg/kg/injection, schedule: Q04DX003 (ip), vehicle: Klucel (hydroxypropylcellulose) (HPC) 100 % of control

COC(=O)CC1(O)C=CC(=O)c2ccccc21 (configuration not stated)
inactive: dose: 12.5 mg/kg/injection, schedule: Q01DX005 (ip), vehicle: saline with Tween-80 94 % of control | dose: 25.0 mg/kg/injection, schedule: Q01DX005 (ip), vehicle: saline with Tween-80 100 % of control | [10] 109 % of control | [11] 112 % of control

COC(=O)c1nc(N)nc(C(=O)OC)c1C(=O)c1ccco1
inactive: [8] 101 % of control | [9] 103 % of control

CC(=Nc1c[nH]c(=O)[nH]c1=O)c1cc(C)ccc1O
inactive: dose: 100.0 mg/kg/injection, schedule: Q04DX002 (ip), vehicle: suspension in saline 105 % of control | dose: 200.0 mg/kg/injection, schedule: Q04DX002 (ip), vehicle: suspension in saline 101 % of control | dose: 400.0 mg/kg/injection, schedule: Q04DX002 (ip), vehicle: suspension in saline 104 % of control

COc1cc(C)c(OC)c(C/C=C(\C)CC2(O)C[C@@]3(C)CCC[C@@]3(C)C(=O)C2CC(C)(C)O)c1 (some centres not stated)
inactive: dose: 5.0 mg/kg/injection, schedule: Q01DX005 (ip), vehicle: saline with Tween-80 92 % of control | dose: 10.0 mg/kg/injection, schedule: Q01DX005 (ip), vehicle: saline with Tween-80 95 % of control | dose: 20.0 mg/kg/injection, schedule: Q01DX005 (ip), vehicle: saline with Tween-80 93 % of control

Cc1ccc(NC(=O)C(F)(F)F)cc1
inactive: [1] 113 % of control | [2] 108 % of control | [3] 108 % of control
